Reference: PubChem BioAssay (NCI)
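Where inhibition never reached the appropriate level, the endpoint shown equals the highest concentration tested. Otherwise, values were interpolated linearly from a five-concentration, 48-hour dose response in 96-well plates. GI50 = concentration required for 50% inhibition of growth. TGI denotes the concentration required for complete inhibition of growth.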

What was measured:
Assay in all cases: NCI tumour cell line growth inhibition, 48 h
[1] = tested on: 786-0 renal
[2] = tested on: A498 renal
[3] = tested on: A549 NSCLC
[4] = tested on: ACHN renal
[5] = tested on: BT-549 breast
[6] = tested on: CAKI-1 renal
[7] = tested on: CCRF-CEM leukemia
[8] = tested on: COLO 205 colon
[9] = tested on: DU-145 prostate
[10] = tested on: EKVX NSCLC
[11] = tested on: HCC-2998 colon
[12] = tested on: HCT-116 colon
[13] = tested on: HCT-15 colon
[14] = tested on: HL-60(TB) leukemia
[15] = tested on: HOP-62 NSCLC
[16] = tested on: HOP-92 NSCLC
[17] = tested on: HS 578T breast
[18] = tested on: HT29 colon
[19] = tested on: IGROV1 ovarian
[20] = tested on: K-562 leukemia
[21] = tested on: KM12 colon
[22] = tested on: LOX IMVI melanoma
[23] = tested on: M14 melanoma
[24] = tested on: MALME-3M melanoma
[25] = tested on: MCF7 breast
[26] = tested on: MDA-MB-231 breast
[27] = tested on: MDA-MB-435
[28] = tested on: MOLT-4 leukemia
[29] = tested on: NCI-H226 lung
[30] = tested on: NCI-H23 lung
[31] = tested on: NCI-H460 lung
[32] = tested on: NCI-H522 lung
[33] = tested on: NCI/ADR-RES ovarian
[34] = tested on: OVCAR-3 ovarian
[35] = tested on: OVCAR-4 ovarian
[36] = tested on: OVCAR-5 ovarian
[37] = tested on: OVCAR-8 ovarian
[38] = tested on: PC-3 prostate
[39] = tested on: RPMI-8226 leukemia
[40] = tested on: RXF 393 renal
[41] = tested on: SF-268 CNS
[42] = tested on: SF-295 CNS
[43] = tested on: SF-539 CNS
[44] = tested on: SK-MEL-2 melanoma
[45] = tested on: SK-MEL-28 melanoma
[46] = tested on: SK-MEL-5 melanoma
[47] = tested on: SK-OV-3 ovarian
[48] = tested on: SN12C renal
[49] = tested on: SNB-19 CNS
[50] = tested on: SNB-75 CNS
[51] = tested on: SR leukemia
[52] = tested on: SW-620 colon
[53] = tested on: T-47D breast
[54] = tested on: TK-10 renal
[55] = tested on: U251 CNS
[56] = tested on: UACC-257 melanoma
[57] = tested on: UACC-62 melanoma
[58] = tested on: UO-31 renal

## Cc1[nH]c(C(=O)Nc2ccc(S(=O)(=O)N3CCCCC3)cc2OCCOCCOCCOCCOCCOCCOCCOCCOCCOc2cc(S(=O)(=O)N3CCCCC3)ccc2NC(=O)c2[nH]c(C)c3c2CCCCC3=O)c2c1C(=O)CCCC2
[1]
  GI50: 1690 nM
  TGI: > 100 µM
[2]
  GI50: 1210 nM
[3]
  GI50: 2390 nM
  TGI: > 100 µM
[4]
  GI50: 17.4 µM
  TGI: > 100 µM
[5]
  GI50: 911 nM
  TGI: > 100 µM
[6]
  GI50: 841 nM
  TGI: > 100 µM
[7]
  GI50: 1290 nM
  TGI: > 100 µM
[8]
  GI50: 1170 nM
  TGI: > 100 µM
[9]
  GI50: 4.99 µM
  TGI: > 100 µM
[10]
  GI50: 2970 nM
  TGI: > 100 µM
[11]
  GI50: 296 nM
  TGI: 1120 nM
[12]
  GI50: 538 nM
  TGI: 4.41 µM
[13]
  GI50: 12.9 µM
  TGI: > 100 µM
[14]
  GI50: 108 nM
[15]
  GI50: 1110 nM
  TGI: > 100 µM
[16]
  GI50: 433 nM
  TGI: > 100 µM
[17]
  GI50: 375 nM
  TGI: > 21.9 µM
[18]
  GI50: 648 nM
  TGI: > 19.8 µM
[19]
  GI50: 480 nM
[20]
  GI50: 435 nM
  TGI: > 100 µM
[21]
  GI50: 1680 nM
  TGI: > 100 µM
[22]
  GI50: 169 nM
  TGI: 639 nM
[23]
  GI50: 1010 nM
  TGI: > 100 µM
[24]
  GI50: 909 nM
  TGI: > 23.5 µM
[25]
  GI50: 95 nM
  TGI: > 100 µM
[26]
  GI50: 776 nM
  TGI: > 100 µM
[27]
  GI50: 766 nM
  TGI: > 100 µM
[28]
  GI50: 861 nM
  TGI: > 32.8 µM
[29]
  GI50: 542 nM
  TGI: 8.73 µM
[30]
  GI50: 2380 nM
  TGI: > 100 µM
[31]
  GI50: 1770 nM
  TGI: > 100 µM
[32]
  GI50: 190 nM
  TGI: 1210 nM
[33]
  GI50: > 100 µM
  TGI: > 100 µM
[34]
  GI50: 483 nM
[35]
  GI50: 909 nM
  TGI: > 29.7 µM
[36]
  GI50: 3.26 µM
  TGI: > 100 µM
[37]
  GI50: 1670 nM
  TGI: > 100 µM
[38]
  GI50: 1090 nM
  TGI: > 100 µM
[39]
  GI50: 325 nM
[40]
  GI50: 1260 nM
  TGI: > 100 µM
[41]
  GI50: 2290 nM
  TGI: > 100 µM
[42]
  GI50: 2830 nM
  TGI: > 100 µM
[43]
  GI50: 599 nM
  TGI: > 100 µM
[44]
  GI50: 768 nM
[45]
  GI50: 1590 nM
  TGI: > 100 µM
[46]
  GI50: 3.92 µM
  TGI: > 89.8 µM
[47]
  GI50: 286 nM
  TGI: 806 nM
[48]
  GI50: 1480 nM
  TGI: > 100 µM
[49]
  GI50: 1020 nM
  TGI: > 100 µM
[50]
  GI50: 78.8 nM
  TGI: 1180 nM
[51]
  GI50: 107 nM
  TGI: > 32.5 µM
[52]
  GI50: 2050 nM
  TGI: > 100 µM
[53]
  GI50: 489 nM
  TGI: > 100 µM
[54]
  GI50: 2050 nM
  TGI: > 100 µM
[55]
  GI50: 1400 nM
  TGI: > 100 µM
[56]
  GI50: 944 nM
[57]
  GI50: 461 nM
  TGI: 3.71 µM
[58]
  GI50: 4.83 µM
  TGI: > 100 µM
